# In patent publication US20020147136A1, “Compounds for targeting endothelial cells, compositions containing the same and methods for their use” (priority 2000, published 2002):
# Residues, ends and D or L forms follow the SMILES beside them.
# Experiments:
# Assay type in all cases: cell-based
# [1] = tested on: Human aortic endothelial cells (HAEC); assay: Free TKPPR peptide inhibition of TKPPR-conjugated bead binding to HAEC
# Experimental: HAEC were seeded into each well of an 8-well chamber slide (Collagen I Cellware, Becton Dickinson) and allowed to achieve confluence at 37° C. Solutions containing both TKPPR-beads (final concentration 4.9×10^6/mL) and green control beads (final concentration 4.9×10^6/mL) were prepared in D-PBS containing protease inhibitor cocktail (final dilution 1:50) and 0, 10, 25, 50, 100, 200, or 500 μM free TKPPR peptide. 0.25 mL of each microsphere solution was added to a well in the drained chamber slide and incubated at RT for 15 min. Two wells received the bead solution (mixed unconjugated and TKPPR beads as indicated above) lacking free competing TKPPR peptide. The slide was then washed three times with 0.5 mL D-PBS containing 0.1% Tween 20, fixed with methanol for 1 min and mounted. The three images for each level of TKPPR competition and the six images of the control were averaged and the % inhibition of binding was calculated using the following equation:
# % Inhibition=100×(Control Density−Competition Density)/Control Density
# A total of eleven 8-well slides were evaluated for competitive TKPPR-bead binding to HAEC on 7 different days.
# [2] = tested on: Human aortic endothelial cells (HAEC); assay: TKPPR-conjugated fluorescent bead binding to HAEC, static
# Experimental: Human aortic endothelial cells (HAEC) from Biowhittaker were grown as monolayers in EGM-MV medium from Biowhittaker according to the supplier's instructions.
# Briefly, a frozen cryovial of cells (500,000 cells in about 1 mL) was thawed for 2-3 minutes in a 37° C. water bath and cells were seeded into a T-75 flask coated with collagen I (commercially available) containing 15 mL EGM-MV of medium pre-equilibrated with 5% CO2 atmosphere. Cells were incubated in a standard tissue culture incubator at 37° C. HAEC were subcultured for up to 3 additional passages, using the following protocol:
# For binding studies and characterization, pelleted cells were diluted to a concentration of 16,560 cells per mL, and 0.5 mL was seeded into each well of an 8-well chamber slide (Collagen I-coated, Becton Dickinson) to generate a seeding density of 12,000 cells/cm^2. Cells seeded into chamber slides were used for assays after 7 to 10 days, and were not further propagated.
# TKPPR (see preparation described in the Example 1) was attached to red fluorescent carboxylate-modified FluoSpheres™ (Molecular Probes), which are 2.0 μm microspheres provided at 3.9×10^9 particles/mL of distilled water. 1.0 mg TKPPR was combined with 0.5 mLof 50 mM MES buffer (2-[N-Morpholino]ethanesulfonic acid, (commercially available), pH 6.0 and 0.2 mL FluoSpheres (7.8×10^8 spheres) in a 1.5 mL Eppendorf snap top, polypropylene centrifuge tube and rotated for 30 min at room temperature (RT). Then 2.8 mg EDAC (1-ethyl-3-(3-dimethylaminopropyl)carbodiimide hydrochloride, (commercially available) in 0.025 mL MES was added and the tube was rotated for 2 h at RT. Following the addition of 0.005 mL 1 N NaOH and 5.7 mg glycine in 0.025 mL MES, the tube was rotated for 30 min more at RT. The beads were then washed by employing three cycles of centrifugation at 14,000 rpm (20,800× g) in an Eppendorf 5417R centrifuge for 15 min, discarding the resulting supernatant, and resuspending in D-PBS. Storage was at 4° C. in 0.4 mL DPBS containing 0.05% NaN3 (final bead concentration was about 1.95×10^9/mL).
# Final bead concentration was 1.95×10^7/mL. […]
# Bead binding and localization was assessed at 200× magnification using the same microscopy equipment as described above. […] Finally, the processed images were inverted into black on a white background using Scion Image software (version beta 3b) and the integrated density was measured with the whole field selected.
# The incubation time was decreased to 15 min on an orbital shaker, and the washes (3) were carried out using D-PBS containing 0.1% Tween 20 (Sigma). […] TKPPR-bead binding was quantitated in three fields, the other bead types were quantitated in one field only. Bound beads were quantitated by manual counting.
# [3] = tested on: Rabbit aortic endothelial cells (RAEC); assay: Microbubble binding to RAEC in static culture; settings: free TKPPR 100 μM; 5% bubbles (Composition I of Example 5)
# Experimental: Rabbit aortic endothelial cells (RAEC) from Biowhittaker (Cat No. AC-7018, lot 9CC086 from a custom isolation) were obtained frozen on dry ice and stored in liquid nitrogen until thawing. RAEC were cultured and used in bubble binding assays exactly as HAEC (described above), except that EGM2-MV medium (Biowhittaker Cat No. CC-3202) was substituted for EGM-MV.
smiles,measurement,setting,value
"CC(O)C(N)C(=O)NC(CCCCN)C(=O)N1CCCC1C(=O)N1CCCC1C(=O)NC(CCCNC(=N)N)C(=O)O [TKPPR, L-Arginine, L-threonyl-L-lysyl-L-prolyl-L-prolyl] (H-TKPPR-OH; configuration not given here)",Average (n = 11) % Inhibition of TKPPR-bead binding,[1]; free TKPPR 10 μM,30.8%
same,Average (n = 11) % Inhibition of TKPPR-bead binding,[1]; free TKPPR 25 μM,50.7%
same,Average (n = 11) % Inhibition of TKPPR-bead binding,[1]; free TKPPR 50 μM,50.5%
same,Average (n = 11) % Inhibition of TKPPR-bead binding,[1]; free TKPPR 100 μM,62.0%
same,Average (n = 11) % Inhibition of TKPPR-bead binding,[1]; free TKPPR 200 μM,72.2%
same,Average (n = 11) % Inhibition of TKPPR-bead binding,[1]; free TKPPR 500 μM,70.6%
same,Integrated density of bound beads,"[2]; Experiment 1, 1.95×10^7 beads/mL, 30 min, HAEC monolayer",229.97 arbitrary units
same,Number of bound beads,"[2]; Experiment 2, 4.9×10^6 beads/mL, 15 min, manual counting, TKPPR average of three fields, others one field","74, 103, 72 (ave. 83)"
same,RAEC bubbles bound,[3],21
